Values of other authors in US20100136097A1, “Systems for modulating inflammation” (Searete LLC, a limited liability corporation of the State …, priority 2008, published 2010).
Blank lines part the entries; values can stand above or below the compound they belong to.

What was measured:
[1] = tested on: proteasomal activity in cultured breast cancer cells; settings: through binding of copper
[2] = tested on: Src family kinases (Src, Lck, Yes, Fyn); settings: at nanomolar concentrations
[3] = single agent, infused at 400 mg over one hour
[4] = mice

Compound: CCN(CC)C(=S)SSC(=S)N(CC)CC [Disulfiram, 1-(diethylthiocarbamoyldisulfanyl)-N,N-diethyl-methanethioamide]
proteasomal activity [1]: inhibits proteasomal activity

Compound: Cc1nc(Nc2ncc(C(=O)Nc3c(C)cccc3Cl)s2)cc(N2CCN(CCO)CC2)n1.O [dasatinib, N-(2-chloro-6-methylphenyl)-2-[[6-[4-(2-hydroxyethyl)-1-piperazinyl]-2-methyl-4-pyrimidinyl]amino]-5-thiazolecarboxamide, monohydrate]
inhibition of Src family kinases (Src, Lck, Yes, Fyn) [2]: inhibits

inhibition of CpG-induced Src family kinase activation, or its dependent cellular responses (Src family kinase): does not inhibit
Compound: CCN(CC)CCCC(C)Nc1ccnc2cc(Cl)ccc12 (centres unmarked) [Chloroquine]

Compound: CCN(CC)CCCC(C)Nc1ccnc2cc(Cl)ccc12.O=P(O)(O)O.O=P(O)(O)O (centres unmarked) [Chloroquine phosphate, 7-chloro-4-[[4-(diethylamino)-1-methylbutyl]amino]quinoline phosphate (1:2)]
tolerability of infusion [3]: without complication

Compound: Cl.Cl.Nc1ccccc1Oc1ccc2c(N)nsc2c1 [Example M62812, 3-amino-6-(2-aminophenoxy)-1,2-benzisothiazole dihydrochloride]
prevention of lethal septic shock [4]: prevents lethal septic shock
